According to patent US8207121B2, “Sensitization to another anticancer therapy and/or amelioration of a side effect of another anticancer therapy by treatment with a GST-activated anticancer compound” (Telik, Inc., priority 2004, dated 2012):
Counter-ions that a name gives are not always drawn. Like-named read-outs stand apart in the source and are kept apart here.

Assays:
OVCAR-3 cells = assay: Cytotoxicity assay (CellTiter-Glo), OVCAR-3; assay type: cell-based; details: Homo sapiens
Experimental: Cancer cell line. The human cancer cell line OVCAR-3 (ovarian adenocarcinoma) was obtained from the National Cancer Institute, Bethesda, Md., U.S.A.
(§1) A paclitaxel-resistant derivative cell line OVCAR-PR was developed from the human ovarian cancer cell line OVCAR-3 by growing OVCAR-3 cells in gradually increasing concentrations (up to 5 nM) of paclitaxel. A canfosfamide-modified derivative cell line OVCAR-TLK was developed by growing OVCAR-3 cells in gradually increasing concentrations (up to 6.5 μM) of canfosfamide. To maintain the phenotypes of the cell lines, the cells were treated with the compounds at weekly intervals. Cells were grown in compound-free media for 24 hours before any experiments.
(§2) Cytotoxicity assay. Log-phase cells were seeded in 96-well plates and incubated with the diluted compound or solvent for 2-3 doubling times. The extent of cell growth was quantitated using the CellTiter-Glo assay (Promega Corporation, Madison, Wis., U.S.A.), used in accordance with the assay kit directions. The amount of ATP in the lysate, which corresponds to the number of viable cells, was quantitated using a luminometer. All assays were conducted in triplicate wells, with solvent control. The extent of cell growth was expressed as a percentage of the signal from the solvent control wells. The mean of the triplicate wells was computed and IC50 determined using PrismGraph.

OVCAR-PR cells = assay: Cytotoxicity assay (CellTiter-Glo), paclitaxel-resistant OVCAR-PR; assay type: cell-based, human; details: for IC50: Homo sapiens; for increase in resistance: IC50 in OVCAR-PR cells versus OVCAR-3 cells
Experimental: as §1, §2

OVCAR-TLK cells = assay: Cytotoxicity assay (CellTiter-Glo), canfosfamide-modified OVCAR-TLK; assay type: cell-based, human
Experimental: as §1, §2
Cell doubling time. 1.5×10^4 cells were seeded in a 25-mL flask. The cells were grown for four days and the number of viable cells was determined by Trypan Blue staining and manual counting using a hemocytometer. The assay was conducted in triplicate at each time point. The times for two cell doublings for OVCAR-3 and OVCAR-TLK cells were approximately 3.5 and 5.5 days, respectively.

[1] = tested on: M6709 human colon carcinoma cell line selected for resistance to doxorubicin; details: line overexpresses GST P1-1; cited from earlier work
[2] = tested on: MCF-7 human breast carcinoma cell line selected for resistance to cyclophosphamide; details: line overexpresses GST P1-1; cited from earlier work
[3] = tested on: cell culture and tumor biopsies; details: cited from earlier work
GST P1-1 = GST P1-1 (Homo sapiens, UniProt P09211); details: cited from earlier work
GST A1-1 = target: T1, GST A1-1 (Homo sapiens, UniProt P08263); details: cited from earlier work
T1 sequence (P08263 1-222): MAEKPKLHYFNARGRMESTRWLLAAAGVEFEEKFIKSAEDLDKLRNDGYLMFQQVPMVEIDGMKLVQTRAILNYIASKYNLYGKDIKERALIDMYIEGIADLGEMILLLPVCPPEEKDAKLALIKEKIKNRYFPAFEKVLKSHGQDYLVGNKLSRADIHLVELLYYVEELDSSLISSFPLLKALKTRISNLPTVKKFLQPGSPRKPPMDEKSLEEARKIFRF

[4] = tested on: ovarian, breast, non-small cell lung, and colorectal cancers; details: cited from earlier work
GST M1a-1a = target: T2, GST M1a-1a (Homo sapiens, UniProt P09488); details: cited from earlier work
T2 sequence (P09488 1-218): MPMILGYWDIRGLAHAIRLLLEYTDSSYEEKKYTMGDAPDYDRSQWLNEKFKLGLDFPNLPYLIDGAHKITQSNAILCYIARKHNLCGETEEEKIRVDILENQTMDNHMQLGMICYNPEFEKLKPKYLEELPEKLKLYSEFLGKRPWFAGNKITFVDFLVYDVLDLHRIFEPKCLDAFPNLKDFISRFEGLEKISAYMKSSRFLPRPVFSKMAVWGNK

[5] = Clinical observation: side effects of carboplatin therapy in ovarian cancer patients; assay type: in vivo, human
Text: Ovarian cancer patients treated with carboplatin-containing regimens underwent repeated cycles of alopecia corresponding to the administration of the carboplatin.

M7609 xenografts = details: xenografts engineered to have high, medium, and low GST P1-1; cited from earlier work

GST P1-1, sequence (P09211 2-210 limits assumed): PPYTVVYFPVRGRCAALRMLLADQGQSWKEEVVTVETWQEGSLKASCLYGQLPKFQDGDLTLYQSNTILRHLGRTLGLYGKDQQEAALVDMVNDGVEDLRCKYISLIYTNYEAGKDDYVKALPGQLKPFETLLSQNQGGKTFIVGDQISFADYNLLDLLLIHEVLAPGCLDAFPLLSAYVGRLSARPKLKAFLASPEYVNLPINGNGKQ

Question: For N[C@@H](CCC(=O)N[C@@H](CS(=O)(=O)CCOP(=O)(N(CCCl)CCCl)N(CCCl)CCCl)C(=O)N[C@@H](C(=O)O)c1ccccc1)C(=O)O [canfosfamide, L-γ-glutamyl-3-[[2-[[bis[bis(2-choroethyl)-amino]phosphinyl]oxy]ethyl]sulfonyl]-L-alanyl-2-phenyl-(2R)-glycine], which IC50 (OVCAR-3 cells; OVCAR-3) is on record?
Answer: 1300 nM

Question: And the IC50 (OVCAR-PR cells)?
Answer: 1600 nM

Question: And the increase in resistance (OVCAR-PR cells)?
Answer: 1.2 fold

Question: And the “sensitivity to canfosfamide, OVCAR-3 versus OVCAR-TLK” value (OVCAR-TLK cells; treated for approximately two doubling times)?
Answer: approximately equally sensitive

Question: What about the “potency versus parental cell line” value [1] of the same compound?
Answer: more potent

Question: And the “potency versus parental cell line” value [2]?
Answer: more potent

Question: And the “cross-resistance to platinum, paclitaxel, doxorubicin and gemcitabine” value [3]?
Answer: non-cross-resistant

Question: What about the “activation by GST isoenzyme” value (GST P1-1) of the same compound?
Answer: activated

Question: And the “activation by GST isoenzyme” value (GST A1-1)?
Answer: activated

Question: And the clinical activity ([4]; colorectal and breast cancer)?
Answer: single agent antitumor activity

Question: And the clinical activity ([4]; patients with non-small cell lung cancer and ovarian cancer)?
Answer: significant single agent antitumor activity and improvement in survival

Question: For C[C@@](NC(=O)[C@H](CS(=O)(=O)CCOP(=O)(N(CCCl)CCCl)N(CCCl)CCCl)NC(=O)CC[C@H](N)C(=O)O)(C(=O)O)c1ccccc1 [TLK(303, L-γ-glutamyl-3-[[2-[[bis[bis(2-chloroethyl)-amino]phosphinyl]oxy]ethyl]sulfonyl]-L-alanyl-2-phenyl-(2S)-alanine], which “activation by GST isoenzyme” value (GST A1-1) is on record?
Answer: activated

Question: With N[C@@H](CCC(=O)N[C@@H](CS(=O)(=O)CCOP(=O)(N(CCCl)CCCl)N(CCCl)CCCl)C(=O)NCC(=O)O)C(=O)O [TLK231, L-γ-glutamyl-3-[[2-[[bis[bis(2-chloroethyl)amino]phosphinyl]oxy]ethyl]sulfonyl]-L-alanyl-glycine] as the compound, how does the “activation by GST isoenzyme” value (GST M1a-1a) read?
Answer: activated

Question: For CC(=O)O[C@H]1C(=O)[C@@]2(C)[C@H]([C@H](OC(=O)c3ccccc3)[C@]3(O)C[C@H](OC(=O)[C@H](O)[C@@H](NC(=O)c4ccccc4)c4ccccc4)C(C)=C1C3(C)C)[C@]1(OC(C)=O)CO[C@@H]1C[C@@H]2O [paclitaxel], which IC50 (OVCAR-3 cells; OVCAR-3 cells, read-out: IC50) is on record?
Answer: 1.3 nM

Question: What about the IC50 (OVCAR-PR cells; OVCAR-PR cells, read-out: IC50) of the same compound?
Answer: 49 nM

Question: What about the increase in resistance (OVCAR-PR cells) of the same compound?
Answer: more than 35 fold

Question: And the “decrease of IC50 for paclitaxel after canfosfamide pretreatment” value (OVCAR-PR cells; OVCAR-PR cells first treated overnight with 4 μM canfosfamide)?
Answer: approximately 3 fold

Question: What about the “IC50s for paclitaxel, OVCAR-3 versus OVCAR-TLK” value (OVCAR-TLK cells; equal treatment times) of the same compound?
Answer: approximately the same

Question: What about the “IC50 for paclitaxel lower in OVCAR-TLK than in OVCAR-3 cells” value (OVCAR-TLK cells; treatment times adjusted for doubling times (approximately two doubling times)) of the same compound?
Answer: about 2 fold

Question: Which “recurrence of alopecia with carboplatin treatment” value ([5]; carboplatin AUC 5 or 6 mg/mL·min with canfosfamide hydrochloride 500, 750 and 960 mg/m^2) does the source give for N[C@@H](CCC(=O)N[C@@H](CS(=O)(=O)CCOP(=O)(N(CCCl)CCCl)N(CCCl)CCCl)C(=O)N[C@@H](C(=O)O)c1ccccc1)C(=O)O [canfosfamide hydrochloride] here?
Answer: did not experience the same recurrence of alopecia

Question: And the “hematologic and neurologic side effects of carboplatin” value ([5]; carboplatin in combination with canfosfamide hydrochloride)?
Answer: similarly ameliorated

Question: What about the “potency versus level of GST P1-1” value (M7609 xenografts) of the same compound?
Answer: positively correlated with the level of GST P1-1

Question: What about the “hematological toxicity in patients” value ([4]; treated patients) of the same compound?
Answer: very low incidence of clinically significant hematological toxicity

Question: For N[C@@H](CCC(=O)N[C@@H](Cc1cccc(S(=O)(=O)CCOP(=O)(N(CCCl)CCCl)N(CCCl)CCCl)c1)C(=O)NCC(=O)O)C(=O)O [TLK(296, L-γ-glutamyl-3-[[2-[[bis[bis(2-chloroethyl)amino]phosphinyl]oxy]ethyl]sulfonyl]-L-phenylalanyl-glycine], which “activation by GST isoenzyme” value (GST P1-1) is on record?
Answer: activated
